Assay results from patent publication US20230058316A1, “PEGYLATED IGE-DEPENDENT HISTAMINE-RELEASING FACTOR (HRF)-BINDING PEPTIDE AND USE THEREOF” (EWHA UNIVERSITY - INDUSTRY COLLABORATION FOUNDATION, priority 2020, published 2023).
Where no end group is shown, it is not given here.

Columns and labels:
[1] = tested on: eosinophils in bronchoalveolar lavage fluid; assay: Eosinophil increase in bronchoalveolar lavage fluid, ovalbumin-induced bronchial asthma and rhinitis mouse model; type: in vivo; conditions: 1 mg/kg IP, 8 times daily for 8 days, FIG. 9
Description: (§1) A bronchial asthma and rhinitis animal model was prepared by the following method. An ovalbumin solution was prepared by dissolving ovalbumin in an aluminum hydroxide solution (1 mg/ml) 28 and 14 days before the start of inducing bronchial asthma and rhinitis, and 200 μl of the solution was intraperitoneally injected into each mouse for sensitization. After 14 days of final sensitization, 20 μl of saline/PBS (normal control; NC) or 20 μl of 10 mg/mL ovalbumin solution (positive control; PC) was instilled into the nasal cavity of each lightly anesthetized mouse 4 times every other day for 8 days to induce bronchial asthma and rhinitis.
After anesthetizing the mouse by injecting a mixture of zoletil (250 mg/kg) and rompun (50 mg/kg) intraperitoneally, a 20-gauge catheter was inserted into the trachea by puncturing the trachea with a knife, and 0.6 mL of PBS at a time was injected-collected three times, and the collection rate was adjusted to 80%. The collected bronchoalveolar lavage fluid was centrifuged at 4° C., 3000 rpm for 10 minutes, and the cell precipitate was resuspended in 0.1 mL of PBS. 20 μL of the suspension was analyzed for the composition of blood cells using a fully automatic hematology analyzer (HEMAVET 950 FS, Drew Scientific, Inc.).

[2] = tested on: IL-5; assay: IL-5 secretion in bronchoalveolar lavage fluid, ovalbumin-induced bronchial asthma and rhinitis mouse model; type: in vivo; conditions: 1 mg/kg IP
Description: as §1
After the end of the experiment, the amount of IL-5 in the supernatant obtained by centrifuging bronchoalveolar lavage fluid was measured and quantified by enzyme immunosorbent detection using mouse IL-5 ELISA kit (Biolegend, USA).
(§2) Next, in order to confirm whether there is an effect of inhibiting IL-5 secretion even when administered in a small number of times, the dTBP2 of Preparative Example 4 and Example 3 was administered to the mouse model of Example 4-1 through intraperitoneal injection once in 4 days for a total of 2 times for 8 days inducing bronchial asthma and rhinitis. The amount of IL-5 was measured and quantified by the enzyme immunosorbent detection method in the same manner.
(§3) In addition, the dTBP2 of Preparative Example 4 and Example 3 was administered to the mouse model of Example 4-1 through intraperitoneal injection once on the 1st day of 8 days inducing bronchial asthma and rhinitis. The amount of IL-5 was measured and quantified by the enzyme immunosorbent detection method in the same manner.
The amount of IL-5 was measured and quantified by the enzyme immunosorbent detection method in the same manner.

[3] = tested on: IL-4; assay: IL-4 secretion in bronchoalveolar lavage fluid, ovalbumin-induced bronchial asthma and rhinitis mouse model; type: in vivo; conditions: 1 mg/kg IP
Description: as §1
After the end of the experiment, the amount of IL-4 in the supernatant obtained by centrifuging bronchoalveolar lavage fluid was measured and quantified by enzyme immunosorbent detection using mouse IL-4 ELISA kit (Biolegend, USA).
as §2, with “IL-4” for “IL-5”
as §3, with “IL-4” for “IL-5”
The amount of IL-4 was measured and quantified by the enzyme immunosorbent detection method in the same manner.

[4] = tested on: IL-13; assay: IL-13 secretion in bronchoalveolar lavage fluid, ovalbumin-induced bronchial asthma and rhinitis mouse model; type: in vivo; conditions: 1 mg/kg IP, 8 times daily for 8 days, FIG. 18
Description: as §1
After the end of the experiment, the amount of IL-13 in the supernatant obtained by centrifuging bronchoalveolar lavage fluid was measured and quantified by enzyme immunosorbent detection using mouse IL-13 ELISA kit (R&D system, USA).
as §2, with “IL-13” for “IL-5”
as §3, with “IL-13” for “IL-5”
The amount of IL-13 was measured and quantified by the enzyme immunosorbent detection method in the same manner.

[5] = tested on: ovalbumin-specific IgE; assay: Ovalbumin-specific IgE secretion in mouse plasma, ovalbumin-induced bronchial asthma and rhinitis mouse model; type: in vivo; conditions: plasma, 1 mg/kg IP, 8 times daily for 8 days
Description: as §1
Ovalbumin is an allergy-causing substance mainly contained in egg whites. […] After completion of the experiment, the mouse was anesthetized by injecting a mixture of zoletil (250 mg/kg) and rompun (50 mg/kg) intraperitoneally, and the chest was opened. 0.8 mL blood was collected by puncture of the heart with a 26 gauge 1 mL syringe coated with heparin. The collected blood was centrifuged at 4° C., 3000 rpm for 10 minutes to obtain plasma components. The amount of ovalbumin-specific IgE in the blood serum obtained through the above process was measured and quantified by enzyme immunosorbent detection method using mouse OVA specific IgE kit (Biolegend, USA).
as §2, with “inhibiting ovalbumin-specific IgE” for “inhibiting IL-5”, “secretion in plasma” for “secretion”, “of ovalbumin-specific IgE secretion” for “of IL-5”
as §3, with “ovalbumin-specific IgE secretion” for “IL-5”
The amount of ovalbumin-specific IgE secretion was measured and quantified by the enzyme immunosorbent detection method in the same manner.

[6] = Pharmacokinetic analysis in ICR mice; type: in vivo; conditions: mouse, plasma, IV, 10 mg/kg
Description: The dTBP2 of Preparative Examples 4 and Example 3 was added to a solution prepared in DMSO:PEG400:DW=5:55:40, and this was administered at the concentration of 5 mL/kg. Blood samples were taken at 0.083, 0.25, 0.5, 1, 2, 4, and 8 hours post injection. The blood was centrifuged at 4° C., 3000 rpm for 10 minutes, to which cold acetonitrile containing internal standard was added in an amount 4 times the plasma component, and then deproteinization was carried out. After centrifugation again at 4° C., 13000 rpm for 10 minutes, the supernatant was collected and analyzed by Agilent 6460 LC-MS/MS. Pharmacokinetic analysis was performed with Phoenix WinNonlin (Pharsight ver 6.4, USA) using a non-compartmental analysis model.

[7] = target: T1, recombinant HRF (Homo sapiens, UniProt P13693); assay: Inhibition of IL-8 secretion by HRF in BEAS-2B cells; type: cell-based; conditions: FIG. 7; for inhibition of IL-8 secretion by HRF: 0.75 nM and 7.5 nM with 75 nM recombinant HRF, 24 hours
T1 sequence (P13693 1-172): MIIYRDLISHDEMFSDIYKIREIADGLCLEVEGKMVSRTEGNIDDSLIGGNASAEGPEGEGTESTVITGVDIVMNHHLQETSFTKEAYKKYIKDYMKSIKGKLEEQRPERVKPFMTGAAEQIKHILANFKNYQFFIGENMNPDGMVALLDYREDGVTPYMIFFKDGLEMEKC
Description: The PEG (5000)-dTBP2 prepared in Preparative Example 4, Example 1, and Example 2 was diluted with 1% penicillin streptomycin/DMEM for each concentration (0, 0.75 nM, 7.5 nM), incubated with 75 nM recombinant HRF at room temperature for 15 minutes, and then treated to BEAS-2B cells grown to about 70% on a 48 well plate. The cells were cultured in a 37° C., 5% CO2 incubator for 24 hours, and the supernatant was obtained. Then, the released IL-8 was quantified by enzyme immunosorbent detection (Biolegend). The IL-8 enzyme immunosorbent detection was performed according to the protocol of Biolegend Human IL-8 ELISA kit with pre coated plates (431508). 300 μl of wash buffer was added to each well of the plate pre-coated with the IL-8 antibody, and the plate was washed a total of 4 times. Then, 50 μl of the supernatant was added to each well of the plate and left at room temperature for 2 hours. After 2 hours, the supernatant in the plate was removed, and 300 μl of wash buffer was added to each well of the plate. The plate was washed a total of 4 times, and then 100 μl of a detection antibody solution was added to each well of the plate and left at room temperature for 1 hour. Thereafter, 300 μl of wash buffer was added to each well of the plate, and the plate was washed a total of 4 times. Then, 100 μl of Avidin-HRP A solution was added to each well of the plate and left at room temperature for 30 minutes. Finally, 300 μl of wash buffer was added to each well of the plate, and after washing the plate 5 times, 100 μl of substrate solution F was added to each well of the plate and left at room temperature in a dark room. 100 μl of a stop solution was additionally added to each well of the plate, and absorbance was measured at 450 nm and 570 nm. The wash buffer, detection antibody solution, avidin HRP A solution, substrate solution F, and stop solution were all used as reagents included in a kit (431508, Biolegend).

[8] = Metabolic stability in mouse liver microsomes; conditions: NADPH, 37° C., 30 minutes
Description: (§4) Upon completion of the reaction, cold acetonitrile containing internal standard was added, and then deproteinization was carried out. The reactant was centrifuged at 4° C., 4000 rpm for 15 minutes, and the supernatant was analyzed by LC-MS/MS. The system was verified with buspirone, a reference material.

[9] = Metabolic stability in human liver microsomes; conditions: pH 7.4
Description: as §4

## WYVYPSM [Preparative Example 4, WYVYPSM, reference compound]
[1]
  reduction of increased eosinophils vs positive control: about 40%
[2]; 8 times daily for 8 days, FIG. 10
  reduction of IL-5 secretion: about 25%
[2]; once on the 5th day of 8 days, FIG. 13
  IL-5 secretion inhibitory effect: weak
[3]; 8 times daily for 8 days, FIG. 14
  reduction of IL-4 secretion: about 50%
[3]; once on the 5th day of 8 days, FIG. 17
  IL-4 secretion inhibitory effect: weak
[4]
  reduction of IL-13 secretion: about 30%
[5]
  inhibiting ovalbumin-specific IgE secretion in plasma (in words): very effective
[5]; FIG. 22
  reduction of ovalbumin-specific IgE secretion: about 50%
[6]
  AUC(0-inf): 30 ng·h/mL
  AUC(0-t): 20 ng·h/mL
[6]; read-out: T1/2 (half life) (converted)
  half-life: 1.91 h
[6]; read-out: Vss (steady-state volume of distribution)
  Vd: 783 L/kg

## Example 2: dTBP2 (WYVYPSM) conjugated at the C-terminal with methoxy polyethylene glycol hydrazide (5 kDa) (WYVYPSM-{mPEG hydrazide 5 kDa})
[7]
  inhibition of IL-8 secretion by HRF: effective

## Example 1: dTBP2 (WYVYPSM) conjugated at the N-terminal with methoxy polyethylene glycol propionaldehyde (5 kDa) ({mPEG propionaldehyde 5 kDa}-WYVYPSM)
[7]
  inhibition of IL-8 secretion by HRF: effective
  inhibitory effect on the IL-8 secretion by HRF, comparison among the tested peptides: best

## Methoxy polyethylene glycol propionaldehyde (5000) [Preparative Example 1]
[7]
  inhibition of IL-8 secretion by HRF: effective

## O=C1CC2(CCCC2)CC(=O)N1CCCCN1CCN(c2ncccn2)CC1 [Buspirone, buspirone]
[8]
  Mouse (%) remaining after reaction: 0.10%
[9]
  remaining at 0.5 h: 6.15%
